According to patent US20080206149A1, “METHOD, DYE AND MEDICAMENT FOR STAINING THE INTERNAL LIMITING MEMBRANE, EPIRETINAL MEMBRANE, THE VITREOUS AND/OR THE CAPSULE OF AN EYE” (LUDWIG-MAXIMILIANS-UNIVERSITAT MUNCHEN, priority 2005, published 2008):
Entries after “also recorded” stand apart in the source; their conditions may differ.

How the values were obtained:
[1] = tested on: human lens capsule; experiment: Capsulorhexis in patients with white cataracts (Example 2); format: in vivo
Source text: In previous experimental studies, we have investigated a number of vital dyes in-vivo and in-vitro in order to evaluate their staining characteristics and safety (C. Haritoglou, A. Yu, W. Freyer, S. G. Priglinger, C. Alge, K. Eibl, C. A. May, U. Welge-Luessen, A. Kampik, “An evaluation of novel vital dyes for intraocular surgery”, Invest Ophthalmol Vis Sci 46 (2005), pp. 3315-22; F. Schuettauf, C. Haritoglou, C. A. May, R. Rejdak, A. Mankowska, W. Freyer, K. Eibl, E. Zrenner, A. Kampik, S. Thaler, “Administration of novel dyes for intraocular surgery: an in vivo toxicity animal study”, Invest Ophthalmol Vis Sci 47 (2006), pp. 3573-8; C. Haritoglou, R. Tadayoni, C. A. May, C. A. Gass, W. Freyer, S. G. Priglinger, A. Kampik, “Short-term in vivo evaluation of novel vital dyes for intraocular surgery”, Retina 26 (2006), pp. 673-8). […] Prior to the application in humans, the toxicity of bromphenol blue had been thoroughly investigated in experimental settings including ex-vivo cell culture models and in-vivo animal studies with intraocular exposure times of up to seven days (C. Haritoglou, A. Yu, W. Freyer, S. G. Priglinger, C. Alge, K. Eibl, C. A. May, U. Welge-Luessen, A. Kampik, “An evaluation of novel vital dyes for intraocular surgery”, Invest Ophthalmol Vis Sci 46 (2005), pp. 3315-22; F. Schuettauf, C. Haritoglou, C. A. May, R. Rejdak, A. Mankowska, W. Freyer, K. Eibl, E. Zrenner, A. Kampik, S. Thaler, “Administration of novel dyes for intraocular surgery: an in vivo toxicity animal study”, Invest Ophthalmol Vis Sci 47 (2006), pp. 3573-8; C. Haritoglou, R. Tadayoni, C. A. May, C. A. Gass, W. Freyer, S. G. Priglinger, A. Kampik, “Short-term in vivo evaluation of novel vital dyes for intraocular surgery”, Retina 26 (2006), pp. 673-8). […] The data obtained from these toxicity studies underlined the high biocompatibility of bromphenol blue. Bromphenol blue (C19H10Br4O5S, FW 670) has been used in the past as a vital stain to probe the blood-brain barrier and as a protein stain and as a pH indicator. In the present example, we describe experience using bromphenol blue to stain the human lens capsule in patients with white cataracts. This investigation was approved by the local ethics committee and the Institutional Review Board (IRB). Written informed consent was obtained from all patients prior to surgery.
Cataract formation was due to ocular trauma (n=2), uveitis (n=1) and unknown cause (n=2). Mean age was 59 years. All patients underwent a complete clinical examination before surgery. B-scan ultrasound of the globe was performed to rule out intraocular pathologies such as tumors or retinal detachments. Bromphenol blue powder was dissolved and diluted using BSS plus (balanced salt solution; Alcon Laboratories Inc., Fort Worth, Tex, USA) and sterilized using a 0.22 μm syringe filter. We used dye concentrations of approximately 0.1% (310 mOsm, pH 7.6). Five consecutive patients were included into this preliminary series of patients, three female and two male. Visual acuity was 20/400 or below before surgery and increased to 20/50 (mean) postoperatively. The dye was either injected into the air-filled (n=3) anterior chamber and carefully removed by injection of viscoelastic material (FIG. 7) immediately after injection or injected after having filled the anterior chamber with viscoelastic material (n=2) without prior air injection. In the latter case, the dye was evenly and gently distributed on the lens surface using the cannula and excessive dye was removed after completion of capsulorhexis (approximately one minute after application).

[2] = tested on: anterior lens capsule; settings: previous experimental studies; cited from earlier work
[3] = tested on: epiretinal membranes, ILM and vitreous; experiment: Vitreoretinal surgery for macular pucker (Example 4); format: in vivo, human; settings: for staining effect of ERM: washed out after one minute
Source text: The study was approved by the local ethics committee and Institutional Review Board, and written informed consent was obtained from all patients. Thirteen patients with macular pucker, seven males and six females with a mean age of 65, were included in the present study.
Preoperatively and postoperatively, patients underwent a complete clinical examination including measurement of best corrected visual acuity (VA), slit-lamp examination, tonometry, funduscopy using a 78 diopter lens (Volk Optical, Mentor, Ohio, USA), fluorescein angiography, OCT (Stratus), Goldmann perimetry, multifocal ERG and fundus photograph. Patients were seen one day before surgery and then in six-week intervals. Postoperatively, ERG and Goldmann perimetry were performed at the six-week follow-up visit and were not repeated if unremarkable.
Bromphenol blue was dissolved and diluted using BSS plus and sterilised using a 0.22 μm syringe filter and dye concentrations of 0.2% were then injected into the eye.
Vitrectomy consisted of a standard three-port pars plana vitrectomy as described in previous reports (Haritoglou C., Gandorfer A., Gass C. A., et al., “Indocyanine green-assisted peeling of the internal limiting membrane in macular hole surgery affects visual outcome: a clinicopathologic correlation”, Am J. Ophthalmol 2002; 134:836-41; Haritoglou C., Gandorfer A., Gass C. A., et al.: “The effect of indocyanine-green on functional outcome of macular pucker surgery, Am J. Ophthalmol 2003; 135:328-37). Before injection of the dye, a fluid air-exchange was performed to avoid an uncontrolled dye distribution. Then, a few drops of the dye were applied over the macular area. After a period of one minute, the dye was completely washed out by irrigation. The staining characteristics were then evaluated by the surgeon and an additional examiner (CH). This was followed by removal of epiretinal tissue and the ILM using an end-gripping forceps. After the removal of epiretinal tissue, no second dye injection was performed in this series of patients.
All epiretinal tissue removed during surgery was harvested and immediately prepared for ultrastructural analysis. Ultrathin sections were obtained from all specimens, contrasted with uranyl acetate and lead citrate, and analysed using a Zeiss EM 9 electron microscope (Zeiss Jena, Germany).

[4] = tested on: ARPE-19 cells; experiment: MTT assay, ARPE-19 cells; settings: 0.2% and 0.02% dye, 10 minutes exposure, compared to BSS plus control
Experimental: ARPE-19 cells, a human retinal pigment epithelial cell line (42), were purchased from ATCC (Manassas, Va., USA) and grown in a 1:1 mixture of Dulbecco's modified Eagles medium and Ham's F12 medium (DMEM/Ham's F12, Biochrom), supplemented with 10% FCS (Biochrom).
For exposure of dyes RPE and ARPE-19 cells were kept for 24 hours under serum free conditions. After washing cells three times with PBS, cells were incubated for 10 minutes with 300 μl of BSS plus containing 0.2% or 0.02% of dye, respectively. […] The dye was then removed by carefully rinsing cells with BSS plus three times. After 24 hours incubation with serum containing media the cell proliferation assay was performed. RPE cells (p3-6) were seeded in 24-well plates and exposed to two concentrations (0.2 and 0.02%) of dyes. BSS plus alone and H2O2, (200 μL/mL) served as controls.
The tetrazolium dye-reduction assay (MTT; 3-[4,5-dimethylthiazol-2-yl]-2,5-diphenyl tetrazolium bromide;) was used to determine cell survival rate. […] The medium was removed, cells were washed with PBS, and 1000 μL/well MTT solution (1.5 mL MTT stock, 2 mg/mL in PBS, plus 28.5 mL DMEM) was added. RPE cells were incubated at 37° C. for 1 hour. The formazan crystals that formed were dissolved by the addition of dimethyl sulfoxide (DMSO; 1000 μL/well). Absorption was measured by a scanning multiwell spectrophotometer at 550 nm (Molecular Probes, Garching, Germany). […] Experiments were performed in triplicate and repeated three times. RPE and ARPE-19 cells of the same passage incubated with BSS without addition of dyes served as control. Statistical comparison between dye concentrations was performed with SPSS (Mann-Whitney-U-Test).
The MTT test as performed in this study is a well established test for the assessment of cell viability, but relies on calorimetric measurement of a blue (550 nm) formazan reaction product. This color overlaps with the absorption spectra of some of the dyes tested. […] Cell monolayers were treated with dyes as per the experiments described above but absorbance readings were performed without prior application of MTT. […]

[5] = approximately 0.1% dye, white cataract patients
[6] = 0.2%, listed as Bromphenol blue
[7] = 0.2%, listed as bromphenol blue

In the case of `O=S1(=O)OC(c2cc(Br)c(O)c(Br)c2)(c2cc(Br)c(O)c(Br)c2)c2ccccc21` [Bromophenol blue, Bromophenole blue], the “contrast between the white lens and the stained lens capsule” value ([1]; all patients) is reported as “excellent contrast”, the “visual acuity before surgery” value [1, 5] is reported as 20/400 and the “visual acuity postoperatively (mean)” value [1, 5] is reported as 20/50. For the same molecule, the “staining of the anterior lens capsule” value ([1]; approximately 0.1%, both injection techniques) was “predictable and uniform staining”, the “complications such as corneal edema, inflammation or decrease of corneal endothelial cells” value ([1]; follow-up up to five months postoperatively) was “no complications noted” and the “penetration of the lens capsule by the dye” value ([1]; human, in vivo) was “did not penetrate the lens capsule”. The “unwanted staining of other tissues such as the iris or the corneal endothelium” value ([1]; human, in vivo) was “no unwanted staining of other tissues”, the “residual dye on the anterior lens capsule rim or any other ocular tissue” value ([1]; one day postoperatively) was “no residual dye was detected” and the “safety for intraocular application” value [2] was “safe for intraocular application”. For the same molecule, the “staining of the anterior lens capsule” value [2] was “strongly stain”, the “staining of the ILM” value ([3]; 0.2%, patients with ERM) was “did not observe sufficient staining of the ILM” and the “staining effect of ERM” value [3, 6] was “varied depending on the thickness of the ERM”. The “staining effect of ERM” value [3, 7] was “good staining properties”, the “staining of remnant vitreous at the vitreous base” value [3, 6] was “could he seen in all cases; also recorded: strong staining” and the “staining of remnant vitreous at the vitreous base” value [3, 7] was “good staining properties”. The “histology: cellular integrity of epiretinal cells” value ([3]; epiretinal membranes of 8 patients, electron microscopy) was “maintained their cellular integrity”, the “amplitudes in postoperative ERG examinations” value ([3]; in vivo) was “no affection of the amplitudes” and the “dye-related complications in any functional test performed” value ([3]; in vivo) was “No dye-related complications”. For the same molecule, the “loss of VA” value ([3]; in vivo) was “No loss of VA”, the “peripheral visual field defects attributable to the dye” value ([3]; in vivo) was “nor did we observe peripheral visual field defects” and the “safety profile intraoperatively and during follow-up” value ([3]; in vivo) was “very good safety profile”. The VA postoperatively ([3]; overall patients) was 0.32, the VA preoperatively ([3]; overall patients) was 0.16 and the “cell survival of ARPE-19 cells (MTT)” value [4] was “no significant impact on cell survival”.
